Patent publication US10669268B2, “Bicyclic derivatives” (Hoffmann-La Roche Inc., priority 2012, dated 2020)

Molecular target: ATX (human His-tagged) (Homo sapiens (Human), UniProt Q13822)
Test: Human ATX enzyme inhibition assay (fluorescence quenching, MR121 substrate)
Format: biochemical
Conditions: 30 nM ATX, 1 μM MR121 substrate, 30° C., pH 8.0
Method in brief: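 Tris-HCl buffer at pH 8.0 contained 140 mM NaCl, 5 mM KCl, 1 mM each CaCl2 and MgCl2, and 0.01% Triton X-100. The MR121 substrate (1 μM final) was incubated with enzyme for 15 min at 30 °C, and activity was read by fluorescence quenching.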

IC50 [nM] | Structure (SMILES)
6 | O=C(/C=C/c1cc(Cl)cc(OC(F)(F)F)c1)N1C[C@@H]2CN(C(=O)c3ccc4[nH]nnc4c3)C[C@H]2C1 [Example 15.48]
4 | O=C(OCc1cc(Cl)cc(OC(F)(F)F)c1)N1C[C@@H]2CN(C(=O)c3ccc4[nH]nnc4c3)C[C@@H]2C1 [Example 4.27, (3aS,6aR)-5-(1H-benzotriazole-5-carbonyl)-hexahydro-pyrrolo[3,4-c]pyrrole-2-carboxylic acid 3-chloro-5-trifluoromethoxy-benzyl ester]
6 | O=C(OCc1ccc(OC(F)F)c(F)c1)N1C[C@@H]2CN(C(=O)c3ccc4[nH]nnc4c3)C[C@H]2C1 [Example 4.39, (3aS,6aS)-5-(1H-benzotriazole-5-carbonyl)-hexahydro-pyrrolo[3,4-c]pyrrole-2-carboxylic acid 4-difluoromethoxy-3-fluoro-benzyl ester]
2 | O=C(COc1cc(Cl)ccc1C(F)(F)F)N1CC[C@@H]2CN(C(=O)c3ccc4[nH]nnc4c3)C[C@@H]2CC1 [Example 1.41, 1-((3aR,8aS)-2-(1H-benzo[d][1,2,3]triazole-5-carbonyl)octahydropyrrolo[3,4-d]azepin-6(7H)-yl)-2-(5-chloro-2-(trifluoromethyl)phenoxy)ethanone]
250 | O=C(c1ccc2ccccc2c1)N1C[C@@H]2CN(C(=O)c3ccc4[nH]nnc4c3)C[C@H]2C1 [Example 19.06, (1H-benzotriazol-5-yl)-[(3aR,6aR)-5-(naphthalene-2-carbonyl)-hexahydro-pyrrolo[3,4-c]pyrrol-2-yl]-methanone]
1600 | O=C(/C=C/c1ccc(OC(F)(F)F)cc1)N1C[C@@H]2CN(C(=O)NCc3c[nH]nn3)C[C@@H]2C1 [Example 9.02]
38 | O=C(/C=C/c1ccc(Cl)c(Cl)c1)N1CC[C@@H]2CN(C(=O)c3ccc4[nH]nnc4c3)C[C@@H]2CC1 [Example 15.31]
11 | O=C(CCc1ccc(C(F)(F)F)cc1)N1C[C@@H]2CN(C(=O)c3ccc4[nH]nnc4c3)C[C@H]2C1 [Example 15.59]
5 | Cc1cc(OCC(=O)N2C[C@@H]3CN(C(=O)c4ccc5[nH]nnc5c4)C[C@H]3C2)c(C(C)C)cc1C#N [Example 19.05, 4-{2-[(3aS,6aS)-5-(1H-benzotriazole-5-carbonyl)-hexahydro-pyrrolo[3,4-c]pyrrol-2-yl]-2-oxo-ethoxy}-5-isopropyl-2-methyl-benzonitrile]
77 | O=C(CCc1cc(Cl)cc(Cl)c1)N1C[C@@H]2CN(C(=O)c3ccc4[nH]c(=O)oc4c3)C[C@@H]2C1 [Example 1.02, 6-((3aR,6aS)-5-(3-(3,5-dichlorophenyl)propanoyl)octahydropyrrolo[3,4-c]pyrrole-2-carbonyl)benzo[d]oxazol-2(3H)-one]
10 | O=C(c1ccc(-c2ccc(Cl)cc2)cc1)N1C[C@H]2CN(C(=O)c3ccc4[nH]nnc4c3)C[C@@H]2C1 (stereo in doubt) [Example 19.13, (1H-benzotriazol-5-yl)-[(3aS,6aS)-5-(4′-chloro-biphenyl-4-carbonyl)-hexahydro-pyrrolo[3,4-c]pyrrol-2-yl]-methanone]
103 | O=C(COc1ccccc1C(F)(F)F)N1C[C@@H]2CN(C(=O)c3ccc4[nH]nnc4c3)C[C@H]2C1 [Example 15.87]
123 | O=C(OCc1ccc(F)c(OC(F)(F)F)c1)N1C[C@@H]2CN(C(=O)c3ccc4[nH]nnc4c3)C[C@@H]2C1 [Example 4.28, (3aS,6aR)-5-(1H-benzotriazole-5-carbonyl)-hexahydro-pyrrolo[3,4-c]pyrrole-2-carboxylic acid 4-fluoro-3-trifluoromethoxy-benzyl ester]
50 | N#Cc1cccc(/C=C/C(=O)N2CC[C@@H]3CN(C(=O)c4ccc5[nH]nnc5c4)C[C@@H]3CC2)c1 [Example 15.38]
5 | O=C(CCc1ccc(OC(F)(F)F)cc1F)N1C[C@@H]2CN(C(=O)[C@@H]3CCc4[nH]nnc4C3)C[C@H]2C1 [Example 19.26, 1-[(3aR,6aR)-5-[(5R)-4,5,6,7-tetrahydro-1H-benzotriazole-5-carbonyl]-1,3,3a,4,6,6a-hexahydropyrrolo[3,4-c]pyrrol-2-yl]-3-[2-fluoro-4-(trifluoromethoxy)phenyl]propan-1-one]
977 | CN(C)S(=O)(=O)c1ccc(/C=C/C(=O)N2CC[C@@H]3CN(C(=O)c4ccc5[nH]nnc5c4)C[C@@H]3CC2)cc1 [Example 15.08]

IC50 [nM] | Structure (SMILES)
149 | O=C1N[C@@H]2CCN(C(=O)N3C[C@H]4CCN(C(=O)/C=C/c5ccc(OC(F)(F)F)cc5)CC[C@H]4C3)C[C@H]2O1 [Example 8.05]
11 | O=C(OCc1cc(Cl)cc(Cl)c1)N1C[C@H]2CN(C(=O)c3ccc4[nH]nnc4c3)C[C@@H]2C1 [Example 4.02, (3aR,6aR)-3,5-dichlorobenzyl 5-(1H-benzo[d][1,2,3]triazole-5-carbonyl)hexahydropyrrolo[3,4-c]pyrrole-2(1H)-carboxylate]
74 | CN(Cc1cnn[nH]1)C(=O)N1C[C@H]2CCN(C(=O)/C=C/c3ccc(OC(F)(F)F)cc3)CC[C@H]2C1 [Example 9.07, (3aR,8aS)-N-((1H-1,2,3-triazol-5-yl)methyl)-N-methyl-6-((E)-3-(4-(trifluoromethoxy)phenyl)-acryloyl)octahydro-pyrrolo[3,4-d]azepine-2(1H)-carboxamide]
93 | O=C(/C=C/c1ccc(OC(F)(F)F)cc1)N1CC[C@H]2CN(C(=O)c3ccc4[nH]nnc4c3)C[C@H]2C1 [Example 15.37]
226 | O=C(OCc1cc(Cl)cc(Cl)c1)N1C[C@@H]2CN(C(=O)C3CCc4[nH]nnc4C3)C[C@@H]2C1 (stereo partly drawn) [Example 1.13, (3aR,6aS)-3,5-dichlorobenzyl 5-(4,5,6,7-tetrahydro-1H-benzo[d][1,2,3]triazole-5-carbonyl)hexahydropyrrolo[3,4-c]pyrrole-2(1H)-carboxylate]
41 | CS(=O)(=O)c1cc(COC(=O)N2C[C@H]3CCN(C(=O)c4ccc5[nH]nnc5c4)C[C@@H]3C2)cc(C(F)(F)F)c1 (relative stereo) [Example 4.01, trans-5-(1H-benzotriazole-5-carbonyl)-octahydro-pyrrolo[3,4-c]pyridine-2-carboxylic acid 3-methanesulfonyl-5-trifluoromethyl-benzyl ester]
8 | O=C(c1ccc(-c2ccc(Cl)cc2)cc1)N1C[C@@H]2CN(C(=O)[C@@H]3CCc4[nH]nnc4C3)C[C@H]2C1 [Example 19.11, [(3aS,6aS)-5-(4′-chloro-biphenyl-4-carbonyl)-hexahydro-pyrrolo[3,4-c]pyrrol-2-yl]-(R)-4,5,6,7-tetrahydro-1H-benzotriazol-5-yl-methanone]
20 | O=C(OCc1ccc(F)cc1C(F)(F)F)N1CC[C@@H]2CN(C(=O)c3ccc4[nH]nnc4c3)C[C@H]2C1 (relative stereo) [Example 1.30, trans-2-(1H-benzotriazole-5-carbonyl)-octahydro-pyrrolo[3,4-c]pyridine-5-carboxylic acid 4-fluoro-2-trifluoromethyl-benzyl ester]
118 | O=C(OCc1cc(Cl)cc(Cl)c1)N1CC[C@H]2CN(C(=O)c3ccc4[nH]nnc4c3)C[C@H]2C1 [Example 10B, (3aS,7aR)-2-(1H-benzotriazole-5-carbonyl)-octahydro-pyrrolo[3,4-c]pyridine-5-carboxylic acid 3,5-dichloro-benzyl ester]
7 | O=C(CCc1ccc(OCC(F)(F)F)cc1F)N1CC[C@@H]2CN(C(=O)c3ccc4[nH]nnc4c3)C[C@@H]2CC1 [Example 1.45, 1-[(3aS,8aR)-2-(1H-benzotriazole-5-carbonyl)-1,3,3a,4,5,7,8,8a-octahydropyrrolo[3,4-d]azepin-6-yl]-3-[2-fluoro-4-(2,2,2-trifluoroethoxy)phenyl]propan-1-one]
101 | CN(Cc1cnn[nH]1)C(=O)N1C[C@H]2CCN(C(=O)CCc3ccc(OC(F)(F)F)c(F)c3)CC[C@H]2C1 [Example 17.02, (3aR,8aS)-N-((1H-1,2,3-triazol-5-yl)methyl)-6-(3-(3-fluoro-4-(trifluoromethoxy)phenyl)-propanoyl)-N-methyloctahydropyrrolo[3,4-d]azepine-2(1H)-carboxamide]
7 | O=C(OCc1ccc(OC(F)(F)F)cn1)N1C[C@@H]2CN(C(=O)c3ccc4[nH]nnc4c3)C[C@H]2C1 [Example 4.45, (3aS,6aS)-5-(1H-benzotriazole-5-carbonyl)-hexahydro-pyrrolo[3,4-c]pyrrole-2-carboxylic acid 5-trifluoromethoxy-pyridin-2-ylmethyl ester]
19 | CC(C)c1ccccc1OCC(=O)N1C[C@@H]2CN(C(=O)c3ccc4[nH]nnc4c3)C[C@H]2C1 [Example 15.86]
3950 | O=C(/C=C/c1cccnc1)N1CC[C@@H]2CN(C(=O)c3ccc4[nH]nnc4c3)C[C@@H]2CC1 [Example 15.17]
9 | CC(C)c1ccccc1/C=C/C(=O)N1CC[C@@H]2CN(C(=O)c3ccc4[nH]nnc4c3)C[C@@H]2CC1 [Example 1.22, (E)-1-[(3aS,8aR)-2-(1H-benzotriazole-5-carbonyl)-octahydro-pyrrolo[3,4-d]azepin-6-yl]-3-(2-isopropyl-phenyl)-prop-2-en-1-one]
6 | O=C(/C=C/c1ccc(OC(F)(F)F)cc1)N1C[C@@H]2CN(C(=O)c3ccc4[nH]nnc4c3)C[C@H]2C1 [Example 15.12]

Structure (SMILES) | IC50 [nM]
O=C(OCc1cc(Cl)cc(Cl)c1)N1C[C@H]2CCN(C(=O)c3ccc4[nH]nnc4c3)C[C@@H]2C1 (relative stereo) [Example 12A, trans-3,5-dichlorobenzyl 5-(1H-benzo[d][1,2,3]triazole-5-carbonyl)-hexahydro-lH-pyrrolo[3,4-c]pyridine-2(3H)-carboxylate] | 11
